The values that follow come from patent US20240092784A1, “CONDENSED HETEROCYCLIC COMPOUND” (NISSAN CHEMICAL CORPORATION, priority 2020, published 2024).

pIC50: −log10 of the molar value. Structures can show the parent of a compound that is named as a salt.

Sequence of human SPR (P35270 whole entry): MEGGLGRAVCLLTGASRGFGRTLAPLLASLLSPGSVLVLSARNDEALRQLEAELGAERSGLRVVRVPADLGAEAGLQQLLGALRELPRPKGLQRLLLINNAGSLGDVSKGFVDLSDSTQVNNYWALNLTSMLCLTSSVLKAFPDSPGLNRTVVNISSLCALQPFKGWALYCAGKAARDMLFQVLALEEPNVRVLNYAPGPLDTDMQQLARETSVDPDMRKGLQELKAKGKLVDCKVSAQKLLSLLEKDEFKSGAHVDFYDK

The first assay concerns the target human SPR (Homo sapiens (Human), UniProt P35270). In words: Evaluation Example 2: Measurement of human SPR inhibitory activity (seven concentrations, sepiapterin absorbance at 420 nm). It is filed as biochemical. Particulars: Evaluation Example 2, seven concentrations 0.14 nM to 100 nM, 240 minutes at room temperature, read-out: IC50. The procedure, abridged:
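Reactions ran 240 min at room temperature in 100 mM Tris-HCl pH 7.5 with 0.01% BSA. They contained tag-cleaved, E. coli-expressed full-length human SPR (diluted to 150 ng/mL), seven compound concentrations from 0.14 to 100 nM, and sepiapterin/NADPH added as a 120 μM/160 μM solution. Inhibition was calculated from sepiapterin absorbance at 420 nm.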
For the compound `COc1cnc(-c2cc3n(CC(C)(C)C)c(=O)c(C(=O)NC4CC4)c(O)n3n2)cn1` [Synthesis Example 300, N-Cyclopropyl-7-hydroxy-2-(5-methoxypyrazin-2-yl)-4-neopentyl-5-oxo-4,5-dihydropyrazolo[1,5-a]pyrimidine-6-carboxamide], the pIC50 was 8.03.
As to `CC(Cn1c(=O)c(C(=O)NC2CC2)c(O)n2ncc(/C=C/C(=O)N3CCOCC3)c12)C(F)(F)F` (single isomer, unassigned) [Synthesis Example 388, (E)-N-Cyclopropyl-7-hydroxy-3-(3-morpholino-3-oxoprop-1-en-1-yl)-5-oxo-4-(3,3,3-trifluoro-2-methylpropyl)-4,5-dihydropyrazolo[1,5-a]pyrimidine-6-carboxamide], the pIC50 is 8.82.
On the same count and under the same terms, for `CN(C)C(=O)c1cn[nH]c1-c1cc2n(CC(C)(C)C)c(=O)c(C(=O)NC3CC3)c(O)n2n1` [Synthesis Example 314, N-Cyclopropyl-2-(4-(dimethylcarbamoyl)-1H-pyrazol-5-yl)-7-hydroxy-4-neopentyl-5-oxo-4,5-dihydropyrazolo[1,5-a]pyrimidine-6-carboxamide hydrochloride] the value was 9.03.
With `Cc1nn2c(O)c(C(=O)NC3CC3)c(=O)n(CC(C)C)c2c1/C=C/C(=O)N1C[C@H]2COC[C@H]2C1` [Synthesis Example 628, N-Cyclopropyl-7-hydroxy-4-isobutyl-2-methyl-5-oxo-3-((E)-3-oxo-3-((3aR,6aS)-tetrahydro-1H-furo[3,4-c]pyrrol-5(3H)-yl)prop-1-en-1-yl)-4,5-dihydropyrazolo[1,5-a]pyrimidine-6-carboxamide], the pIC50 is 9.08.
As for `CC(C)Cn1c(=O)c(C(=O)NC2CC2)c(O)n2ncc(/C=C/C(=O)N3[C@H](C)CC[C@@H]3C)c12` [compound 592, N-Cyclopropyl-3-((E)-3-(cis-2,5-dimethylpyrrolidin-1-yl)-3-oxoprop-1-en-1-yl)-7-hydroxy-4-isobutyl-5-oxo-4,5-dihydropyrazolo[1,5-a]pyrimidine-6-carboxamide], the pIC50 was 8.84.
On to `C[C@H]1COCCN1C(=O)/C=C/c1cnn2c(O)c(C(=O)NC3CC3)c(=O)n(CC3(C)CC3)c12` [Synthesis Example 369, (S,E)-N-Cyclopropyl-7-hydroxy-4-((1-methylcyclopropyl)methyl)-3-(3-(3-methylmorpholino)-3-oxoprop-1-en-1-yl)-5-oxo-4,5-dihydropyrazolo[1,5-a]pyrimidine-6-carboxamide], for which the pIC50 was 9.24.
For `CC(C)Cn1c(=O)c(C(=O)NC2CC2)c(O)n2ncc(/C=C/C(=O)NC(C)(C)C3CC3)c12` [compound 493], the pIC50 is 9.03.
Still for that read-out and setting: the value for `CC(C)(Cn1c(=O)c(C(=O)NC2CC2)c(O)n2nc(C(N)=O)cc12)C(F)(F)F` [Synthesis Example 277, N6-Cyclopropyl-7-hydroxy-5-oxo-4-(3,3,3-trifluoro-2,2-dimethylpropyl)-4,5-dihydropyrazolo[1,5-a]pyrimidine-2,6-dicarboxamide] was 9.09; that for `CC(C)(C)Cn1c(=O)c(C(=O)NC2CC2)c(O)n2nc(Nc3ncco3)cc12` [Synthesis Example 361, N-Cyclopropyl-7-hydroxy-4-neopentyl-2-(oxazol-2-ylamino)-5-oxo-4,5-dihydropyrazolo[1,5-a]pyrimidine-6-carboxamide] was 8.85; that for `CC(C)Cn1c(=O)c(C(=O)NC2CC2)c(O)n2ncc(/C=C/c3noc(=O)[nH]3)c12` [Synthesis Example 267, (E)-N-Cyclopropyl-7-hydroxy-4-isobutyl-5-oxo-3-(2-(5-oxo-4,5-dihydro-1,2,4-oxadiazol-3-yl)vinyl)-4,5-dihydropyrazolo[1,5-a]pyrimidine-6-carboxamide] was 7.84.
The same measure, in the same setting: for `CC(C)Cn1c(=O)c(C(=O)NC2CC2)c(O)n2ncc(C(=O)N[C@@H](C)c3ccccn3)c12` [Synthesis Example 218, (S)-N6-Cyclopropyl-7-hydroxy-4-isobutyl-5-oxo-N3-(1-(pyridin-2-yl)ethyl)-4,5-dihydropyrazolo[1,5-a]pyrimidine-3,6-dicarboxamide] the value was 9.05; for `CCc1nn2c(O)c(C(=O)NC3CC3)c(=O)n(CC(C)C)c2c1/C=C/C(=O)N1CCOCC1` [compound 586, (E)-N-Cyclopropyl-2-ethyl-7-hydroxy-4-isobutyl-3-(3-morpholino-3-oxoprop-1-en-1-yl)-5-oxo-4,5-dihydropyrazolo[1,5-a]pyrimidine-6-carboxamide], 9.00; for `CC(C)Cn1c(=O)c(C(=O)NC2CC2)c(O)n2nc(N)c(/C=C/C3CCOCC3)c12` [Synthesis Example 434, (E)-2-Amino-N-cyclopropyl-7-hydroxy-4-isobutyl-5-oxo-3-(2-(tetrahydro-2H-pyran-4-yl)vinyl)-4,5-dihydropyrazolo[1,5-a]pyrimidine-6-carboxamide hydrochloride], 8.85.
Regarding `Cc1nn2c(O)c(C(=O)NC3CC3)c(=O)n(CC(C)C)c2c1/C=C/C(=O)N1CCC[C@H]1C(C)C` [Synthesis Example 630, (S,E)-N-Cyclopropyl-7-hydroxy-4-isobutyl-3-(3-(2-isopropylpyrrolidin-1-yl)-3-oxoprop-1-en-1-yl)-2-methyl-5-oxo-4,5-dihydropyrazolo[1,5-a]pyrimidine-6-carboxamide], the pIC50 was 8.91.
`CC(C)Cn1c(=O)c(C(=O)NC2CC2)c(O)n2ncc(C(=O)NCc3ncccc3F)c12` [Synthesis Example 235, N6-Cyclopropyl-N3-((3-fluoropyridin-2-yl)methyl)-7-hydroxy-4-isobutyl-5-oxo-4,5-dihydropyrazolo[1,5-a]pyrimidine-3,6-dicarboxamide]: the pIC50 was 9.05.
Consider `CC(C)(C)Cn1c(=O)c(C(=O)NC2CC2)c(O)n2nc(CN3CCCCC3)cc12` [Synthesis Example 274, N-Cyclopropyl-7-hydroxy-4-neopentyl-5-oxo-2-(piperidin-1-ylmethyl)-4,5-dihydropyrazolo[1,5-a]pyrimidine-6-carboxamide], for which the pIC50 was 8.02.
`CC(C)Cn1c(=O)c(C(=O)NC2CC2)c(O)n2ncc(/C=C/C(=O)N3CCOCC3(C)C)c12` [compound 459, (E)-N-Cyclopropyl-3-(3-(3,3-dimethylmorpholino)-3-oxoprop-1-en-1-yl)-7-hydroxy-4-isobutyl-5-oxo-4,5-dihydropyrazolo[1,5-a]pyrimidine-6-carboxamide]: the pIC50 is 9.13.

The assay is the same for the next values; noted with them: sepiapterin absorbance, Table 41, read-out: concentration at 50% inhibition of human SPR (IC50).
As to `CC(C)Cn1c(=O)c(C(=O)NC2CC2)c(O)n2ncc(/C=C/C(=O)N(C)Cc3ccccn3)c12` [Synthesis Example 710, (E)-N-Cyclopropyl-7-hydroxy-4-isobutyl-3-(3-(methyl(pyridin-2-ylmethyl)amino)-3-oxoprop-1-en-1-yl)-5-oxo-4,5-dihydropyrazolo[1,5-a]pyrimidine-6-carboxamide], the pIC50 is 9.00.
With `CC(C)Cn1c(=O)c(C(=O)NC2CC2)c(O)n2ncc(/C=C/C(=O)N3CCOc4cnccc43)c12` [Synthesis Example 728, (E)-N-Cyclopropyl-3-(3-(2,3-dihydro-1H-pyrido[3,4-b][1,4]oxazin-1-yl)-3-oxoprop-1-en-1-yl)-7-hydroxy-4-isobutyl-5-oxo-4,5-dihydropyrazolo[1,5-a]pyrimidine-6-carboxamide], the pIC50 was 8.97.
On to `COCCN(C)C(=O)/C=C/c1c(C)nn2c(O)c(C(=O)NC3CC3)c(=O)n(CC(C)C)c12` [Synthesis Example 750, (E)-N-Cyclopropyl-7-hydroxy-4-isobutyl-3-(3-((2-methoxyethyl)(methyl)amino)-3-oxoprop-1-en-1-yl)-2-methyl-5-oxo-4,5-dihydropyrazolo[1,5-a]pyrimidine-6-carboxamide], for which the pIC50 is 9.02.
Turning to `CC(C)Cn1c(=O)c(C(=O)NC2CC2)c(O)n2ncc(/C=C/C(=O)N(C)Cc3ncccn3)c12` [Synthesis Example 711, (E)-N-Cyclopropyl-7-hydroxy-4-isobutyl-3-(3-(methyl(pyrimidin-2-ylmethyl)amino)-3-oxoprop-1-en-1-yl)-5-oxo-4,5-dihydropyrazolo[1,5-a]pyrimidine-6-carboxamide], the pIC50 was 8.92.
In the case of `CC(C)Cn1c(=O)c(C(=O)NC2CC2)c(O)n2ncc(/C=C/C(=O)N3CCOc4ccccc43)c12` [Synthesis Example 739, (E)-N-Cyclopropyl-3-(3-(2,3-dihydro-4H-benz[b][1,4]oxazin-4-yl)-3-oxoprop-1-en-1-yl)-7-hydroxy-4-isobutyl-5-oxo-4,5-dihydropyrazolo[1,5-a]pyrimidine-6-carboxamide], the pIC50 was 8.81.
Regarding `Cc1nn2c(O)c(C(=O)NC3CC3)c(=O)n(CC(C)C)c2c1/C=C/C(=O)N1CCN(CC2CC(F)(F)C2)C[C@H]1C` [Synthesis Example 704, (R,E)-N-Cyclopropyl-3-(3-(4-((3,3-difluorocyclobutyl)methyl)-2-methylpiperazin-1-yl)-3-oxoprop-1-en-1-yl)-7-hydroxy-4-isobutyl-2-methyl-5-oxo-4,5-dihydropyrazolo[1,5-a]pyrimidine-6-carboxamide], the pIC50 is 8.82.
Still for that read-out and setting: the value for `CCN1CCN(C(=O)/C=C/c2c(C)nn3c(O)c(C(=O)NC4CC4)c(=O)n(CC(C)C)c23)[C@@H](C)C1` [Synthesis Example 707, (S,E)-N-Cyclopropyl-3-(3-(4-ethyl-2-methylpiperazin-1-yl)-3-oxoprop-1-en-1-yl)-7-hydroxy-4-isobutyl-2-methyl-5-oxo-4,5-dihydropyrazolo[1,5-a]pyrimidine-6-carboxamide] was 9.08.
Regarding `CC(C)Cn1c(=O)c(C(=O)NC2CC2)c(O)n2ncc(/C=C/C(=O)N3CCOc4ncccc43)c12` [Synthesis Example 729, (E)-N-Cyclopropyl-3-(3-(2,3-dihydro-1H-pyrido[2,3-b][1,4]oxazin-1-yl)-3-oxoprop-1-en-1-yl)-7-hydroxy-4-isobutyl-5-oxo-4,5-dihydropyrazolo[1,5-a]pyrimidine-6-carboxamide], the pIC50 was 8.98.
